Experimental data taken from PubChem BioAssay (NCI).
Values joined by “and” are separate entries in the source; they are usually repeats but may differ in a detail not shown here. Equal values may be shown once.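 A five-concentration, 48-hour dose response in 96-well plates underlies each endpoint, interpolated linearly between surrounding concentrations. GI50 is the concentration that inhibits growth by half. TGI denotes the concentration required for complete inhibition of growth.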

Key:
Assay in all cases: inhibition of tumour cell growth, NCI panel, 48 h
UACC-62 melanoma = system: UACC-62 melanoma
MDA-MB-435 = system: MDA-MB-435
OVCAR-8 ovarian = system: OVCAR-8 ovarian
U251 CNS = system: U251 CNS
MALME-3M melanoma = system: MALME-3M melanoma
UO-31 renal = system: UO-31 renal
SK-MEL-5 melanoma = system: SK-MEL-5 melanoma
MDA-MB-231 breast = system: MDA-MB-231 breast
PC-3 prostate = system: PC-3 prostate
HCT-15 colon = system: HCT-15 colon

| Structure (SMILES) | GI50 (UACC-62 melanoma) | TGI (UACC-62 melanoma) | GI50 (MDA-MB-435) | TGI (MDA-MB-435) | GI50 (OVCAR-8 ovarian) | TGI (OVCAR-8 ovarian) | GI50 (U251 CNS) | TGI (U251 CNS) | GI50 (MALME-3M melanoma) | TGI (MALME-3M melanoma) | GI50 (UO-31 renal) | TGI (UO-31 renal) | GI50 (SK-MEL-5 melanoma) | TGI (SK-MEL-5 melanoma) | GI50 (MDA-MB-231 breast) | TGI (MDA-MB-231 breast) | GI50 (PC-3 prostate) | TGI (PC-3 prostate) | GI50 (HCT-15 colon) | TGI (HCT-15 colon) |
| --- | --- | --- | --- | --- | --- | --- | --- | --- | --- | --- | --- | --- | --- | --- | --- | --- | --- | --- | --- | --- |
| CCOC(=O)c1cc2c(n1Cc1ccccc1)-c1oncc1CC2 | 3.45 µM | 17.2 µM | 0.878 µM | 4.37 µM | 7.19 µM | 66.9 µM | 4.73 µM | 34 µM | 6.28 µM | 37 µM | 4.32 µM | 40.5 µM | 2.97 µM | 12 µM | 5.66 µM | 57.1 µM | 9.68 µM | 94.1 µM | 3.58 µM | 56.2 µM |
| Cc1cc(C)nc(SC2=C(Nc3cccc(Cl)c3C)C(=O)N(Cc3ccccc3)C2=O)n1 | > 160 µM | > 160 µM | > 160 µM | > 160 µM | > 160 µM | > 160 µM | > 160 µM | > 160 µM | > 160 µM | > 160 µM | > 160 µM | > 160 µM | > 160 µM | > 160 µM | > 160 µM | > 160 µM | > 160 µM | > 160 µM | > 160 µM | > 160 µM |
| COc1cnc2c(c1)C(=O)c1c-2n(CCCN2CCCC2)c(=O)c2cc(F)ccc12 | 0.471 µM | 2.21 µM | 0.49 µM | 13.9 µM | 0.206 µM | 1.05 µM | 0.116 µM | 0.467 µM | 0.452 µM | 1.73 µM | 0.152 µM | 1.04 µM | 0.309 µM | 1.29 µM | 0.926 µM | 2.96 µM | 0.42 µM | 12.8 µM | 0.283 µM | 1.98 µM |
| CCCCCCCCCCCCOC1C(CNC(=O)C2OC3OC(C)(C)OC3C2NC(=O)CN2CCCCCC2)OC2OC(C)(C)OC21 (configuration not stated) | 1.83 µM | 3.48 µM | 2.72 µM | 7.9 µM | 11 µM | 25.5 µM | 4.91 µM | 15.9 µM | 1.99 µM | 4.1 µM | 6.22 µM | 18 µM | 1.85 µM | 3.41 µM | 9.7 µM | 23 µM | 4.57 µM | 15.8 µM | 4.03 µM | 14.8 µM |
| O=C(O)c1ccc2c(c1)nc(Nc1cccc(Cl)c1)c1ccncc12 | 1.82 µM | 6.16 µM | 2.67 µM and 3.01 µM | > 31.6 µM | 4.1 µM and 3.3 µM | > 75.4 µM | 1.82 µM and 1.38 µM |  | 1.91 µM and 2.68 µM | 7.71 µM and > 10 µM | 3.79 µM and 2.86 µM | 14 µM and > 10 µM | 1.86 µM and 2.08 µM | 4.76 µM and 5.38 µM | 4.18 µM and 3.57 µM | 34.2 µM and > 10 µM | 2.88 µM and 3.57 µM | 22 µM and > 10 µM | 3.12 µM and 2.92 µM | 21.7 µM and > 10 µM |
| COc1ccc(Cn2cc3c(c2-c2cc(OC)c(OC)c(OC)c2)CCc2cnoc2-3)cc1[N+](=O)[O-] | 0.404 µM | > 100 µM | 0.219 µM | 0.612 µM | 3.35 µM | > 100 µM | 1.2 µM | > 100 µM | 0.387 µM | > 100 µM | 1.26 µM | > 100 µM | 0.45 µM | > 71.6 µM | 2.13 µM | > 41.2 µM | 1.39 µM | > 100 µM | 0.573 µM | > 100 µM |
| Cc1c(NC(=O)OC[C@@H]2COCCN2)cn2ncnc(Nc3ccc4c(cnn4Cc4cccc(F)c4)c3)c12 | > 10 µM and 4.82 µM | > 10 µM and 18.7 µM | > 10 µM and 9.97 µM | > 10 µM and 23 µM | > 10 µM and 8.88 µM | > 10 µM and 28.7 µM | 7.5 µM and 5.16 µM | > 10 µM and 18.6 µM | > 10 µM and 10.5 µM | > 10 µM and 31.2 µM | 1.25 µM and 1.55 µM | > 10 µM and 16.5 µM | 5.3 µM and 5.56 µM | > 10 µM and 17.4 µM | 4.89 µM and 2.99 µM | > 10 µM and 13.4 µM | > 10 µM and 10.2 µM | > 10 µM and 31.8 µM | 5.81 µM and 6.14 µM | > 10 µM and 21.4 µM |
| COc1ccc(C(=O)COc2cccc(/C=C3\CSc4ccc(C)cc4C3=O)c2)cc1 | 14.2 µM | > 100 µM | 3.59 µM | 83.9 µM | 5.89 µM | > 100 µM | 7.38 µM | > 100 µM | 41 µM | > 100 µM | 19.9 µM | > 100 µM | 10.9 µM | > 100 µM | 24 µM | > 100 µM | 5.86 µM | > 100 µM | 11.7 µM | > 100 µM |
| CC(=O)[O][Hg][c]1ccccc1 | 0.587 µM | 1.91 µM | 0.808 µM | 2.19 µM | 0.921 µM | 3.96 µM | 0.453 µM | 1.75 µM | 0.506 µM | 1.62 µM | 1.23 µM | 2.54 µM | 0.472 µM | 1.82 µM | 0.732 µM | 2.09 µM | 1.41 µM | 3.21 µM | 0.277 µM | 0.877 µM |
| CCc1nc(N)nc(N)c1-c1ccc(NCCc2ccccc2)c([N+](=O)[O-])c1 |  | 15.8 µM |  | > 73 µM |  | 89 µM |  | 47.3 µM |  | 9.74 µM |  | > 51.4 µM |  | 10.1 µM |  | > 88.9 µM |  | > 71.6 µM |  | > 57.5 µM |
| CN(C[C@@H]1COCCO1)S(=O)(=O)Nc1ccc2ccc3ncc(-c4cnn(C)c4)cc3c(=O)c2c1 | 3.29 µM | > 100 µM | 7.13 µM | > 100 µM | 5.04 µM | > 100 µM | 2.34 µM | > 100 µM | 5.43 µM | > 100 µM | 1.95 µM | > 100 µM | 6.42 µM | > 100 µM | 7.76 µM | > 100 µM | 5.67 µM | > 100 µM | 3.64 µM | > 100 µM |
| CCN1C(=O)N(c2ccccc2)C2NN=c3s/c(=C4\C(=O)N(C(C)C)c5ccccc54)c(=O)n3C21 (configuration not stated) | 0.626 µM | > 100 µM | 0.283 µM | 0.991 µM | 2.05 µM | > 100 µM | 1.44 µM | > 51.6 µM | 1.57 µM | > 100 µM | 2.35 µM | > 100 µM | 1.04 µM | 15.5 µM | 2.51 µM | 11.6 µM | 1.45 µM | > 77.3 µM | 0.733 µM | > 56.6 µM |
| CSc1ccc(/C=C/c2ccnc3ccccc23)cc1 |  |  |  | 12.5 µM |  | 28.8 µM |  | 25.4 µM |  | 32.6 µM |  | 26.5 µM |  | 18.9 µM |  | 30.8 µM |  | 19.2 µM |  | 25.7 µM |
| COc1ccc2c(c1)CCC1=CC3(CCC12C)SCCS3 (configuration not stated) |  | > 10 µM |  | > 10 µM |  | > 10 µM |  | > 10 µM |  | > 10 µM |  |  |  | > 10 µM |  | > 10 µM |  | > 10 µM |  | > 10 µM |
